The nature of data set [1]: Maximum tolerated dose in tumor-bearing athymic nude mice. As to conditions: mouse, in vivo, intravenous.
For the next data set, the system named is DU-145 prostate tumors. The experiment in a line: Anti-tumor activity in mice implanted with DU-145 prostate tumors. Particulars: two doses (q7d×2), FIG. 2.

The MTD is the largest dose that counted as tolerated. Low readings indicate poorer tolerability, high ones better tolerability. With `CC(=O)O[C@@]12CO[C@@H]1C[C@H](O)[C@@]1(C)C(=O)[C@H](O)C3=C(C)[C@@H](OC(=O)[C@H](O)[C@@H](NC(=O)OC(C)(C)C)c4ccccc4)C[C@@](O)([C@@H](OC(=O)c4ccccc4)[C@H]21)C3(C)C` [docetaxel, Docetaxel], the MTD at 78 day in data set [1] (athymic nude, mice with DU-145 prostate tumors) was at most 30 mg/kg. In data set [1] (athymic nude mice, H460 NSCLC tumors, 2nd study), this molecule gave an MTD of at most 30 mg/kg. Further, in the data set on DU-145 prostate tumors (3 doses tested, 78 day observation period), the “anti-tumor effect on tumor growth” value is on record as “good activity”. Further, in the data set with DU-145 prostate tumors, the “time after which tumors recover and grow” value was 30 to 50 days.

The values are drawn from US8937180B2, “Method for preparing a polymer conjugate” (Nektar Therapeutics, priority 2006, dated 2015).
